Experiment [1] has as its target human Adenosine A3 receptor (Homo sapiens (Human), UniProt P0DMS8). As to the kind of experiment: Adenosine receptor TR-FRET binding assay (A3). To be noted: inhibition of binding of 100 nM CA200645, CHO cell membranes. An outline of the steps: (§1)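 Competition binding measured by TR-FRET between terbium-labelled receptors (CHO membranes, human) and fluorescent XAC, CA200645, used at 30 nM for A2b and 100 nM elsewhere. Room temperature, 2 h. Reported as Ki (Cheng–Prusoff).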
In general terms: TR-FRET usually uses a lanthanide donor and a delayed reading to cut background.

Experiment [2] deals with human Adenosine A2b receptor (Homo sapiens (Human), UniProt P29275). The experiment is described as follows: Adenosine receptor TR-FRET binding assay (A2b). The note with it: TR-FRET, inhibition of binding of 30 nM CA200645, CHO cell membranes. A digest of the protocol:
as §1

Experiment [3] has as its target human Adenosine A1 receptor (Homo sapiens (Human), UniProt P30542). The experiment is described as follows: Adenosine receptor TR-FRET binding assay (A1). To be noted: inhibition of binding of 100 nM CA200645, CHO cell membranes. A digest of the protocol: as §1
The next experiment deals with human PBMCs. The experiment is described as follows: CD3/CD28 stimulated IL-2 release NECA reversal assay in human PBMCs. It is filed as cell-based. To be noted: PBMC, 1 uM NECA, 24 hours, IL-2 in culture supernatant. A digest of the protocol:
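PBMCs from citrated healthy-donor blood plated at 50,000 cells/well on 1 ug/ml CD3 antibody with 1 ug/ml CD28 antibody, 1 uM NECA and 0.003-10 μM antagonist (final), 24 h at 37° C. Supernatant IL-2 measured by MSD immunoassay; % inhibition set against no-NECA control wells as 100%.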

Experiment [4] addresses human Adenosine A2a receptor (Homo sapiens (Human), UniProt P29274). The experiment is described as follows: Adenosine receptor TR-FRET binding assay (A2a). To be noted: inhibition of binding of 100 nM CA200645, CHO cell membranes. An outline of the steps: as §1
The subject of experiment [5] is CD8+T cells in human whole blood. As to the kind of experiment: Measurement of pCREB in CD8+T cells in human whole blood. It is filed as cell-based. To be noted: 3 μM NECA, rolipram. A digest of the protocol: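 Heparinised human whole blood pre-incubated 20 min at 37 °C with serially diluted A2a antagonists plus rolipram, then stimulated 60 min with 3 μM NECA (final). After fixation and red-cell lysis, white cells were permeabilized and stained for phospho-CREB and CD8; pCREB in CD8+ T cells measured by flow cytometry.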

The subject of experiment [6] is immature monocyte-derived dendritic cells (MoDC). As to the kind of experiment: MoDC pCREB assay. The note with it: Homo sapiens, Dendritic cell; pCREB in immature MoDC, 1 μM NECA, rolipram. It counts as cell-based, human. As for the experimental part: Monocytes are isolated from human whole blood using CD14 microbeads (Miltenyi Biotec 130-050-201) and differentiated to immature monocyte-derived dendritic cells (MoDC) by culture for 5 days in Mo-DC Differentiation Medium (Miltenyi Biotec 130-094-812). MoDCs are seeded into fresh medium into U bottomed 96 well culture plates and pre-incubated at 37° C. with serial dilutions of A2A/B antagonists for 15 min. At the same time the cells are co-incubated with the phosphodiesterase inhibitor rolipram (final concentration of 20 µM) to amplify the subsequent pCREB response. Adenosine receptor agonist NECA is then added at 1 μM final concentration, leading to an increase in CREB phosphorylation. Following a 45 min incubation at 37° C., the cells are fixed, permeabilized and stained with directly conjugated fluorescent antibodies to phospho-CREB (Alexa Fluor 488), CD209 (PerCP-Cy5.5) and CD86 (APC). Samples are analysed by FACS to measure fluorescence in corresponding channels, and also forward and Side scatter. The population of CD209+/CD86− low cells corresponding to immature dendritic cells is gated for analysis of pCREB levels.
Approximately 5% of the analysed cells are positive for detection of pCREB in the absence of agonist stimulation, representing the background signalling of all pathways upstream of CREB. Following NECA stimulation this is increased to ˜80% pCREB+ve, and this increase is essentially fully reversible by A2B or dual A2A/B antagonists.
IC50 is represented as the point of inflection of a sigmoidal curve

Broadly, the Ki is the equilibrium dissociation constant of an inhibitor or competing ligand from its target. As a reminder, the IC50 is the concentration that inhibits the measured activity by half.

Sequence of human Adenosine A2a receptor (P29274 whole entry): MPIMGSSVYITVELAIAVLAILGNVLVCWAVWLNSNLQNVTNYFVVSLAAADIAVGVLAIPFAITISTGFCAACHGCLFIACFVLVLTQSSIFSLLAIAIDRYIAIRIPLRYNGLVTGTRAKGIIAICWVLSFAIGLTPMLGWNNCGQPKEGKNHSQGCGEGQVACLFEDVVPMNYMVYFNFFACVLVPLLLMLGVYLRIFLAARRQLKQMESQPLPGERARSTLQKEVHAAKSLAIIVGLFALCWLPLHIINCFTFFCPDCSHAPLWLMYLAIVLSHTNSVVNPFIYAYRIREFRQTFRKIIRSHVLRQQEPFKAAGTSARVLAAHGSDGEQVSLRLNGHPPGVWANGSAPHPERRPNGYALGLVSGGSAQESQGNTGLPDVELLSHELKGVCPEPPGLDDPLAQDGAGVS
Sequence of human Adenosine A3 receptor (P0DMS8 whole entry): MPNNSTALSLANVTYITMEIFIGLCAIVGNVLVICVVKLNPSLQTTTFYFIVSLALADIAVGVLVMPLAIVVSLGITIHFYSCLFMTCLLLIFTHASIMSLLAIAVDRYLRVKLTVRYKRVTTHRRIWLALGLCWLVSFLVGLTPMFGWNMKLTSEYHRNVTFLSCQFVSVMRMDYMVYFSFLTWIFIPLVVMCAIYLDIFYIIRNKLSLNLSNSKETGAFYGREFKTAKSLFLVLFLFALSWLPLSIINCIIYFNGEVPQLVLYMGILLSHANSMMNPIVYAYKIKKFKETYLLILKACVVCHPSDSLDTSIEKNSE
Sequence of human Adenosine A2b receptor (P29275 whole entry): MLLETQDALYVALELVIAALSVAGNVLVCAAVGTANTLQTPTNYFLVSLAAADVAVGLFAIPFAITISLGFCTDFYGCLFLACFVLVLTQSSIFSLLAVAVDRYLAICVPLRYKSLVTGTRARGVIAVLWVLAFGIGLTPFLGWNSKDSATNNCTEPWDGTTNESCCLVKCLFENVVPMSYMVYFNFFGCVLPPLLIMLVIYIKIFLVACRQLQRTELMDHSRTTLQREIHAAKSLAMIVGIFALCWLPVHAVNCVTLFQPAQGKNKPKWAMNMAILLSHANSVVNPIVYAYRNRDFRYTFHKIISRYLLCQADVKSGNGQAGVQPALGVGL
Sequence of human Adenosine A1 receptor (P30542 whole entry): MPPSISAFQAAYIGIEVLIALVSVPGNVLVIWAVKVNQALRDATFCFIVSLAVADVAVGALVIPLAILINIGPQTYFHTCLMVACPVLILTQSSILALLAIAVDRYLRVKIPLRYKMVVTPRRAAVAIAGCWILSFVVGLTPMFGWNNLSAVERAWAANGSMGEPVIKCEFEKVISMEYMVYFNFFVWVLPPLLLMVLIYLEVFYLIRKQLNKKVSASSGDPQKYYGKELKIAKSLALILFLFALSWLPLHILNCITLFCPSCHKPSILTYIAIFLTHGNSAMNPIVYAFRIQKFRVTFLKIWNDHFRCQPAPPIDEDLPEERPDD

On to `Cc1cc(-c2sc(NC(=O)N3CC4(COC4)C3)nc2-c2cccc(C#N)c2)cc(CF)n1` [Example 16.6], for which the inhibitory constant (Ki) in experiment [1] was 985 nM; in experiment [2], 1.6 nM; in experiment [3], 42 nM; in experiment [4], 0.16 nM. The IC50 in the experiment on human PBMCs stood at 2.6 nM; in experiment [5], 100 nM; in experiment [6], 13 nM.

`COC1(C#N)CCN(C(=O)Nc2nc(-c3cccc(C#N)c3)c(-c3cc(C)nc(C)c3)s2)CC1` [Example 4.22, 4-Cyano-N-[4-(3-cyanophenyl)-5-(2,6-dimethyl-4-pyridyl)thiazol-2-yl]-4-methoxy-piperidine-1-carboxamide]: the inhibition constant (Ki) in experiment [1] was found to be 165 nM; in experiment [2] it was 0.9 nM; in experiment [3] it was 35 nM; in experiment [4], 0.1 nM. For the same compound, the half-inhibitory concentration (IC50) came out at 1.1 nM in the experiment with human PBMCs, 110 nM in experiment [5] and 11 nM in experiment [6].

`Cc1cc(-c2sc(NC(=O)N3CCC(C)(C#N)CC3)nc2-c2cccc(C#N)c2)cc(C)n1` [Example 6, 4-Cyano-N-[4-(3-cyanophenyl)-5-(2,6-dimethyl-4-pyridyl)thiazol-2-yl]-4-methyl-piperidine-1-carboxamide]: the inhibition constant Ki in experiment [1] is 283 nM; in experiment [2], 1.1 nM; in experiment [3] it was 37 nM; in experiment [4] it was 0.12 nM. In addition, the IC50 in the experiment with human PBMCs was found to be 0.6 nM; in experiment [5], 70 nM; in experiment [6], 9 nM.

Regarding `Cc1cc(-c2sc(NC(=O)N3CC4(COC4)C3)nc2-c2cccc(C#N)c2)cc(C(C)(C)O)n1` [Example 12.2, N-[4-(3-Cyanophenyl)-5-[2-(1-hydroxy-1-methyl-ethyl)-6-methyl-4-pyridyl]thiazol-2-yl]-2-oxa-6-azaspiro[3.3]heptane-6-carboxamide], the inhibitory constant (Ki) was 1520 nM in experiment [1], 8.4 nM in experiment [2], 6 nM in experiment [3] and 0.28 nM in experiment [4]. Moreover, the IC50 was found to be 0.4 nM in the experiment with human PBMCs, 10 nM in experiment [5] and 55 nM in experiment [6].

Consider `Cc1cc(-c2sc(NC(=O)N3CC4(COC4)C3)nc2-c2cccc(C#N)c2C)cc(C)n1` [Example 6.79, N-[4-(3-Cyano-2-methyl-phenyl)-5-(2,6-dimethyl-4-pyridyl)thiazol-2-yl]-2-oxa-6-azaspiro[3.3]heptane-6-carboxamide], for which the figures for the concentration for half-maximal inhibition (IC50) (in the experiment on human PBMCs; in experiment [5]; in experiment [6]) were 14.5 nM, 350 nM and 83 nM, respectively.

Consider `Cc1cc(-c2sc(NC(=O)N3CCC4(CC3)CNC4=O)nc2-c2cccc(C#N)c2)c(F)c(C)n1` [Example 6.69, N-[4-(3-Cyanophenyl)-5-(3-fluoro-2,6-dimethyl-4-pyridyl)thiazol-2-yl]-3-oxo-2,7-diazaspiro[3.5]nonane-7-carboxamide], for which the IC50 in the experiment on human PBMCs turned out to be 10.9 nM; in experiment [5], 430 nM; in experiment [6], 3 nM.

Consider `Cc1cc(-c2sc(NC(=O)N3CCC4(CC3)CNC(=O)O4)nc2-c2cccc(C#N)c2)cc(C)n1` [Example 6.56, N-[4-(3-Cyanophenyl)-5-(2,6-dimethyl-4-pyridyl)thiazol-2-yl]-2-oxo-1-oxa-3,8-diazaspiro[4.5]decane-8-carboxamide], for which the values for the IC50 (in the experiment with human PBMCs; in experiment [5]; in experiment [6]) were 3.5 nM, 70 nM and 7 nM, respectively.

For `Cc1cc(-c2sc(NC(=O)N3CC(C)(C#N)C3)nc2-c2cccc(C#N)c2)c(F)c(C)n1` [Example 6.68, 3-Cyano-N-[4-(3-cyanophenyl)-5-(3-fluoro-2,6-dimethyl-4-pyridyl)thiazol-2-yl]-3-methyl-azetidine-1-carboxamide], the IC50 in the experiment with human PBMCs came out at 3.1 nM; in experiment [5], 50 nM; in experiment [6], 3 nM.

`Cc1cc(-c2sc(NC(=O)N3CCC4(CNCCO4)C3)nc2-c2cccc(C#N)c2)cc(C)n1` (stereo not shown) [Example 13.12, N-[4-(3-Cyanophenyl)-5-(2,6-dimethyl-4-pyridyl)thiazol-2-yl]-6-oxa-2,9-diazaspiro[4.5]decane-2-carboxamide]: the Ki in experiment [1] is 426 nM; in experiment [2], 4.6 nM; in experiment [3], 41 nM; in experiment [4] it was 0.84 nM. The IC50 in experiment [5] was found to be 70 nM; in experiment [6], 73 nM.
